# Laboratory results as given in ChEMBL document CHEMBL1158718, “4-Hydroxybenzoyl derivative from the aqueous extract of the hydroid Campanularia sp” (J Nat Prod, 2005).
# Active and inactive are the calls of the source. The calls are words filed in the database; no cut-off is given here.
# What was measured:
# ARP1 [1] = assay: Induction of P21WAF1 gene expression in human ARP1 cells; assay type: functional, cell-based
# [2] = target: Histone deacetylase (Homo sapiens) (UniProt Q13547+O15379+Q9UBN7+Q92769+Q9UQL6+Q8WUI4+Q9BY41+Q96DB2+P56524+Q9UKV0+Q969S8); assay: Inhibition of HDAC in human ARP1 cells; assay type: cell-based
# ARP1 [3] = assay: Growth inhibition of human ARP1 cells up to 100 uM; assay type: functional, cell-based
Activity [2],Structure (SMILES),Activity (ARP1 [1]),Activity (ARP1 [3])
,O=C(CCCCCCC(=O)Nc1ccccc1)NO,Active,
inactive,N=C(N)NCCCCNC(=O)C(=O)c1ccc(O)cc1,,inactive
